Paper PMC12195231, “Afil, a Lectin from Aplysina fistularis, Exhibits Antibiofilm and Synergistic Antibacterial Activity Against Resistant Bacteria” (Microorganisms, 2025)

Biological target: T1, AfiL
T1 construct: native, purified from sponge tissue (ammonium sulfate, Sepharose 4B, lactose elution); 70 kDa disulfide-linked dimer, ~30 kDa subunits; internal stretch […]
Test: isothermal titration calorimetry
Format: binding, Aplysina fistularis
Settings: TBS (20 mM Tris-HCl pH 7.6, 150 mM NaCl), 25 °C; one-set-of-sites model

`OC[C@H]1O[C@@H](O[C@H]2[C@H](O)[C@@H](O)C(O)O[C@@H]2CO)[C@H](O)[C@@H](O)[C@H]1O` (stereo partly drawn) [D-lactose] gave a Kd of 10.2 µM.
